Experimental data taken from ChEMBL document CHEMBL6153048, “Synthesis and pharmacological evaluation of natural product diphyllin derivatives against head and neck squamous cell carcinoma” (Eur J Med Chem, 2025).
Activity calls are given as the source filed them. No cut-off for these calls is given here.

Tests used:
Homo sapiens [1] = species on record: Homo sapiens; assay: Inhibition of V-ATPase activity in lysosome of human CAL-27 cells using Lyso-Tracker Red as fluorescent probe assessed as decrease in fluorescence intensity at 0.25 uM incubated for 24 hrs by flow cytometry analysis
KYSE-510 = assay: Cytotoxicity against human KYSE-510 cells incubated for 72 hrs by MTT assay; type: functional, cell-based; settings: KYSE-510, 72 h
[2] = AUC (0 to t) in ICR mouse at 3 mg/kg, po measured upto 24 hrs by LC-MS/MS analysis; type: ADME, organism-based; settings: in vivo
[3] = AUC (0 to t) in ICR mouse at 1 mg/kg, iv measured upto 24 hrs by LC-MS/MS analysis; type: ADME, organism-based; settings: in vivo
[4] = Antiproliferative activity against human WSU HN-30 cells assessed as inhibition rate at 0.1 uM incubated for 72 hrs by MTT assay relative to control; type: functional; settings: WSU-HN30
CAL-27 [5] = assay: Induction of cell cycle arrest in human CAL-27 cells assessed as downregulation of cyclin D1 expression incubated for 24 hrs by Western blotting analysis; type: functional, cell-based; settings: dose 1-1000 nM
[6] = Cmax in ICR mouse at 3 mg/kg, po measured upto 24 hrs by LC-MS/MS analysis; type: ADME, organism-based; settings: in vivo
CAL-27 [7] = assay: Inhibition of cell migration in human CAL-27 cells at 1 to 1000 nM incubated for 24 hrs by wound healing assay; type: functional, cell-based; settings: dose 1-1000 nM
CAL-27 [8] = assay: Induction of cell cycle arrest in human CAL-27 cells assessed as downregulation of CDK4 expression incubated for 24 hrs by Western blotting analysis; type: functional, cell-based; settings: dose 1-1000 nM
[9] = Antiproliferative activity against human L02 cells assessed as inhibition rate at 0.1 uM incubated for 72 hrs by MTT assay relative to control; type: toxicity, cell-based
SNU-449 = assay: Cytotoxicity against human SNU-449 cells incubated for 72 hrs by MTT assay; type: functional, cell-based; settings: SNU-449, 72 h
SK-BR-3 = assay: Cytotoxicity against human SK-BR-3 cells incubated for 72 hrs by MTT assay; type: functional, cell-based; settings: SK-BR-3, 72 h
CAL-27 [10] = assay: Induction of apoptosis in human CAL-27 cells assessed as necrotic cells at 1 nM incubated for 72 hrs by Annexin V-FITC/propidium iodide staining based flow cytometry analysis (reference value: 0.03%); type: functional
[11] = Cmax in ICR mouse at 1 mg/kg, iv measured upto 24 hrs by LC-MS/MS analysis; type: ADME, organism-based; settings: in vivo
K562 = assay: Cytotoxicity against human K562 cells incubated for 72 hrs by MTT assay; type: functional, cell-based; settings: K562, 72 h
Homo sapiens [12] = species on record: Homo sapiens; assay: Inhibition of V-ATPase activity in lysosome of human CAL-27 cells using Lyso-Tracker Red as fluorescent probe assessed as decrease in fluorescence intensity at 0.5 uM incubated for 24 hrs by flow cytometry analysis
MDA-MB-231 = assay: Cytotoxicity against human MDA-MB-231 cells incubated for 72 hrs by MTT assay; type: functional, cell-based; settings: MDA-MB-231, 72 h
CAL-27 [13] = assay: Induction of apoptosis in human CAL-27 cells assessed as necrotic cells at 100 nM incubated for 72 hrs by Annexin V-FITC/propidium iodide staining based flow cytometry analysis (reference value: 0.03%); type: functional
[14] = Plasma clearance in ICR mouse at 1 mg/kg, iv measured upto 24 hrs by LC-MS/MS analysis; type: ADME, organism-based
CAL-27 [15] = assay: Antiproliferative activity against human CAL-27 cells assessed as inhibition of cell communities at 10 uM treated for 11 days by plate clone formation assay; type: functional, cell-based; settings: time 11.0 day
SCC-25 [16] = assay: Antiproliferative activity against human SCC-25 cells assessed as inhibition rate at 0.1 uM incubated for 72 hrs by MTT assay relative to control; type: functional
CAL-27 [17] = assay: Antitumor activity against human CAL-27 cells xenografted in BALB/c mouse model assessed as tumor volume change at 0.6 mg/kg, iv treated four times a week for 30 days; type: functional; settings: CAL-27, 720 h, time 30 day, read-out: TGI
SCC-9 [18] = assay: Cytotoxicity against human SCC-9 cells incubated for 72 hrs by MTT assay; type: functional, cell-based; settings: SCC-9, 72 h
[19] = Cytotoxicity against human HN-6 cells incubated for 72 hrs by MTT assay; type: functional, cell-based; settings: HN-6, 72 h
SCC-25 [20] = assay: Cytotoxicity against human SCC-25 cells incubated for 72 hrs by MTT assay; type: functional, cell-based; settings: SCC-25, 72 h
[21] = Cytotoxicity against human […] incubated for 72 hrs by MTT assay; type: functional, cell-based; settings: WSU-HN30, 72 h
ASPC1 = assay: Cytotoxicity against human ASPC1 cells incubated for 72 hrs by MTT assay; type: functional, cell-based; settings: ASPC1, 72 h
[22] = Cytotoxicity against human NCI-H322 cells incubated for 72 hrs by MTT assay; type: functional, cell-based; settings: NCI-H322, 72 h
CAL-27 [23] = assay: Induction of apoptosis in human CAL-27 cells assessed as necrotic cells at 10 nM incubated for 72 hrs by Annexin V-FITC/propidium iodide staining based flow cytometry analysis (reference value: 0.03%); type: functional
SCC-9 [24] = assay: Antiproliferative activity against human SCC-9 cells assessed as inhibition rate at 0.1 uM incubated for 72 hrs by MTT assay relative to control; type: functional
CAL-27 [25] = assay: Antitumor activity against human CAL-27 cells xenografted in BALB/c mouse model assessed as reduction in tumor weight at 0.6 mg/kg, iv treated four times a week for 30 days; type: functional; parameters: scale not given: the % may be the effect or the level left; settings: time 30 day
PANC-1 = assay: Cytotoxicity against human PANC-1 cells incubated for 72 hrs by MTT assay; type: functional, cell-based; settings: PANC-1, 72 h
CAL-27 [26] = assay: Cytotoxicity against human CAL-27 cells incubated for 72 hrs by MTT assay; type: functional, cell-based; settings: CAL-27, 72 h
[27] = Half life in ICR mouse at 1 mg/kg, iv measured upto 24 hrs by LC-MS/MS analysis; type: ADME, organism-based; settings: in vivo
CAL-27 [28] = assay: Induction of apoptosis in human CAL-27 cells assessed as necrotic cells at 1000 nM incubated for 72 hrs by Annexin V-FITC/propidium iodide staining based flow cytometry analysis (reference value: 0.03%); type: functional
[29] = Antiproliferative activity against human HN-6 cells assessed as inhibition rate at 0.1 uM incubated for 72 hrs by MTT assay relative to control; type: functional
[30] = Oral bioavailability in ICR mouse at 3 mg/kg measured upto 24 hrs by LC-MS/MS analysis; type: ADME, organism-based; settings: in vivo
[31] = Cytotoxicity against human L02 cells incubated for 72 hrs by MTT assay; type: toxicity, cell-based
SNU-182 = assay: Cytotoxicity against human SNU-182 cells incubated for 72 hrs by MTT assay; type: functional, cell-based; settings: SNU-182, 72 h
CAL-27 [32] = assay: Antiproliferative activity against human CAL-27 cells assessed as inhibition rate at 0.1 uM incubated for 72 hrs by MTT assay relative to control; type: functional
HepG2 = assay: Cytotoxicity against human HepG2 cells incubated for 72 hrs by MTT assay; type: functional, cell-based; settings: HepG2, 72 h
Jurkat = assay: Cytotoxicity against human Jurkat cells incubated for 72 hrs by MTT assay; type: functional, cell-based
CAL-27 [33] = assay: Effect on epithelial cell proliferation in human CAL-27 cells assessed as regulation of cell proliferation related gene expression at 1 nM incubated for 48 hrs by GO analysis; type: functional, cell-based

COc1cc2c(O)c3c(c(-c4ccc5c(c4)OCO5)c2cc1OC)C(=O)OC3 [DIPHYLLIN]
Activity (Homo sapiens [1]): inactive
IC50 (KYSE-510): 2040 nM
AUC(0-t) at 24 h [2]: 3.56 ng·h/mL
AUC(0-t) at 24 h [3]: 43.6 ng·h/mL
inhibition at 0.1 µM [4]: 9.52%
Activity (CAL-27 [5]): Dose-dependent-effect
Cmax [6]: 11.9 ng/mL
inhibition (CAL-27 [7]): Active
Activity (CAL-27 [8]): Dose-dependent-effect
inhibition at 72 h, 0.1 µM [9]: 7.61%
IC50 (SNU-449): > 10000 nM
IC50 (SK-BR-3): > 10000 nM
Activity (CAL-27 [10]): 0.14%
Cmax [11]: 160 ng/mL
IC50 (K562): 343 nM
Activity (Homo sapiens [12]): inactive
IC50 (MDA-MB-231): > 10000 nM
Activity (CAL-27 [13]): 0.08%
clearance [14]: 409 mL/min/kg
Activity (CAL-27 [15]): Active
inhibition at 0.1 µM (SCC-25 [16]): 23.3%
inhibition in vivo at 0.6 mg/kg (CAL-27 [17]): 42.2%
IC50 (SCC-9 [18]): 1350 nM
IC50 [19]: 2210 nM
IC50 (SCC-25 [20]): 2390 nM
IC50 [21]: 1370 nM
IC50 (ASPC1): > 10000 nM
IC50 [22]: > 10000 nM
Activity (CAL-27 [23]): 0.07%
inhibition at 0.1 µM (SCC-9 [24]): 16.6%
Activity (CAL-27 [25]): 33.3%
IC50 (PANC-1): > 10000 nM
IC50 (CAL-27 [26]): 2000 nM
half-life [27]: 6.48 min
Activity (CAL-27 [28]): 0.09%
inhibition at 0.1 µM [29]: 30.8%
bioavailability [30]: 2.7%
IC50 at 72 h [31]: > 10 µM
IC50 (SNU-182): > 10000 nM
inhibition at 0.1 µM (CAL-27 [32]): 13.7%
IC50 (HepG2): > 10000 nM
IC50 (Jurkat): 1660 nM

COc1cc2c(O[C@@H]3O[C@@H]4CO[C@@H](c5ccsc5)O[C@H]4[C@H](O)[C@H]3O)c3c(c(-c4ccc5c(c4)OCO5)c2cc1OC)C(=O)OC3
Activity (Homo sapiens [1]): Active
IC50 (KYSE-510): 10.9 nM
AUC(0-t) at 24 h [2]: 338 ng·h/mL
AUC(0-t) at 24 h [3]: 541 ng·h/mL
inhibition at 0.1 µM [4]: 65.5%
Activity (CAL-27 [5]): Dose-dependent-effect; Showed Effective Suppression
Activity (CAL-27 [33]): Active
Cmax [6]: 306 ng/mL
inhibition (CAL-27 [7]): Active
Activity (CAL-27 [8]): Dose-dependent-effect; Showed Effective Suppression
inhibition at 72 h, 0.1 µM [9]: 23.5%
IC50 (SNU-449): 544 nM
IC50 (SK-BR-3): 2.4 nM
Activity (CAL-27 [10]): 0.11%
Cmax [11]: 609 ng/mL
IC50 (K562): 2.8 nM
Activity (Homo sapiens [12]): Active
IC50 (MDA-MB-231): 48.3 nM
Activity (CAL-27 [13]): 4.68%
clearance [14]: 31.6 mL/min/kg
Activity (CAL-27 [15]): Active
inhibition at 0.1 µM (SCC-25 [16]): 64.7%
inhibition in vivo at 0.6 mg/kg (CAL-27 [17]): 23.3%
IC50 (SCC-9 [18]): 5.5 nM
IC50 [19]: 9.34 nM
IC50 (SCC-25 [20]): 7.44 nM
IC50 [21]: 77.8 nM
IC50 (ASPC1): 283 nM
IC50 [22]: 298 nM
Activity (CAL-27 [23]): 3%
inhibition at 0.1 µM (SCC-9 [24]): 76.3%
Activity (CAL-27 [25]): 46%
IC50 (PANC-1): 405 nM
IC50 (CAL-27 [26]): 4.37 nM
half-life [27]: 31.8 min
Activity (CAL-27 [28]): 9.61%
inhibition at 0.1 µM [29]: 69.4%
bioavailability [30]: 20.9%
IC50 at 72 h [31]: > 10 µM
IC50 (SNU-182): 45.5 nM
inhibition at 0.1 µM (CAL-27 [32]): 81.5%
IC50 (HepG2): 20.7 nM
IC50 (Jurkat): 166 nM
